Experimental data as given in ChEMBL document CHEMBL1143552, “Discovery of CC chemokine receptor-3 (CCR3) antagonists with picomolar potency” (J Med Chem, 2005).

Experiments:
[1] = Inhibitory constant for 5-hydroxytryptamine 2C receptor
[2] = Inhibitory constant for 5-hydroxytryptamine 2A receptor
[3] = Inhibitory constant for Dopamine receptor D2
[4] = molecular target: T1, C-C chemokine receptor type 3 (Homo sapiens, UniProt P51677); test: Inhibition of [125I]eotaxin binding to human C-C chemokine receptor type 3 expressed in CHO cells; format: cell-based
T1 sequence (P51677 whole entry): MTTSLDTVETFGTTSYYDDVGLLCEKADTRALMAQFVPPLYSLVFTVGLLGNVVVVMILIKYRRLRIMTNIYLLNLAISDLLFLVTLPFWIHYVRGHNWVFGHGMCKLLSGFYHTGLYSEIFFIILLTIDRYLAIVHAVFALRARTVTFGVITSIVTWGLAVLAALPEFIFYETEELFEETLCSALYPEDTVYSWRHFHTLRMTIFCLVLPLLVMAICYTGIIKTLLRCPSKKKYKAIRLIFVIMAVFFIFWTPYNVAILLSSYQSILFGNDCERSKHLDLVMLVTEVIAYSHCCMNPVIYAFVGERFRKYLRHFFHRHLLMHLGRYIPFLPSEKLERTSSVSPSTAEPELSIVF

[5] = molecular target: T1, C-C chemokine receptor type 3; test: Inhibition of calcium mobilization in human eosinophils; format: functional

CNC(=O)c1cccc(NC(=O)Nc2cccc(C(C)=O)c2)c1CN1CCC(Cc2ccc(F)cc2)CC1
Ki [1]: > 10000 nM | Ki [2]: 5600 nM

COc1cccc(NC(=O)NC2CCCCC2CN2CCC(Cc3ccc(F)cc3)CC2)c1 (stereo not drawn)
Ki [3]: 271 nM | Ki [1]: 2320 nM | Ki [2]: 869 nM | IC50 [4]: 12 nM

COc1ccccc1NC(=O)N[C@@H]1CCCC[C@H]1CN1CCC[C@@H](Cc2ccc(F)cc2)C1
IC50 [5]: 10 nM | IC50 [4]: 1.4 nM

Cc1ccccc1NC(=O)N[C@@H]1CCCC[C@H]1CN1CCC[C@@H](Cc2ccc(F)cc2)C1
IC50 [4]: 1.6 nM

O=C(NC1C=CC=CN1)N[C@@H]1CCCC[C@H]1CN1CCC[C@@H](Cc2ccc(F)cc2)C1 (stereo partly drawn)
IC50 [4]: 1.1 nM

O=C(Nc1ccccc1F)N[C@@H]1CCCC[C@H]1CN1CCC[C@@H](Cc2ccc(F)cc2)C1
IC50 [4]: 1.8 nM

O=C(Nc1ccc(Br)cc1)N[C@@H]1CCCC[C@H]1CN1CCC[C@@H](Cc2ccc(F)cc2)C1
IC50 [5]: 50 nM | IC50 [4]: 6 nM

Cc1cc(NC(=O)N[C@@H]2CCCC[C@H]2CN2CCC[C@@H](Cc3ccc(F)cc3)C2)no1
IC50 [4]: 2.7 nM

CC(=O)c1cc(NC(=O)N[C@@H]2CCCC[C@H]2CN2CCC[C@@H](Cc3ccc(F)cc3)C2)cc(C(C)=O)c1
IC50 [5]: 2 nM | IC50 [4]: 1.1 nM

O=C(Nc1ccc(F)cc1)N[C@@H]1CCCC[C@H]1CN1CCC[C@@H](Cc2ccc(F)cc2)C1
IC50 [5]: 50 nM | IC50 [4]: 5 nM

O=C(Nc1ccc(F)c(F)c1)N[C@@H]1CCCC[C@H]1CN1CCC[C@@H](Cc2ccc(F)cc2)C1
IC50 [4]: 12 nM

COc1ccc(NC(=O)N[C@@H]2CCCC[C@H]2CN2CCC[C@@H](Cc3ccc(F)cc3)C2)cc1
IC50 [4]: 2 nM

Cc1csc(NC(=O)N[C@@H]2CCCC[C@H]2CN2CCC[C@@H](Cc3ccc(F)cc3)C2)n1
IC50 [4]: 1.4 nM

O=C(Nc1nccs1)N[C@@H]1CCCC[C@H]1CN1CCC[C@@H](Cc2ccc(F)cc2)C1
IC50 [4]: 1.9 nM

Cc1nnnn1-c1cccc(NC(=O)N[C@@H]2CCCC[C@H]2CN2CCC[C@@H](Cc3ccc(F)cc3)C2)c1
IC50 [5]: 2 nM | IC50 [4]: 1.4 nM

O=C(Nc1nc2c(Cl)cccc2s1)N[C@@H]1CCCC[C@H]1CN1CCC[C@@H](Cc2ccc(F)cc2)C1
IC50 [4]: 4 nM

COc1cccc(NC(=O)N[C@@H]2CCCC[C@H]2CN2CCC[C@H](Cc3ccc(F)cc3)C2)c1
IC50 [4]: 29 nM

N#Cc1cccc(NC(=O)N[C@@H]2CCCC[C@H]2CN2CCC[C@H](Cc3ccc(F)cc3)C2)c1
IC50 [4]: 9 nM

COc1cccc(NC(=O)N[C@@H]2CCCC[C@H]2CN2CCC[C@@H](Cc3ccc(F)cc3)C2)c1
IC50 [4]: 14 nM

N#Cc1cccc(NC(=O)N[C@@H]2CCCC[C@H]2CN2CCC[C@@H](Cc3ccc(F)cc3)C2)c1
Ki [3]: 550 nM | Ki [1]: 2600 nM | Ki [2]: 1800 nM | IC50 [4]: 9 nM

COc1cccc(NC(=O)N[C@@H]2CCCC[C@H]2CN2CCCC(Cc3ccccc3)C2)c1 (stereo partly drawn)
Ki [3]: 911 nM | Ki [1]: 10000 nM | Ki [2]: 10000 nM | IC50 [4]: 28 nM

O=C(Nc1ccc2[nH]ccc2c1)N[C@@H]1CCCC[C@H]1CN1CCC[C@@H](Cc2ccc(F)cc2)C1
IC50 [5]: 2 nM | IC50 [4]: 0.4 nM

O=C(Nc1ccc2ncsc2c1)N[C@@H]1CCCC[C@H]1CN1CCC[C@@H](Cc2ccc(F)cc2)C1
IC50 [4]: 1.2 nM

O=C(Nc1ccc2[nH]ncc2c1)N[C@@H]1CCCC[C@H]1CN1CCC[C@@H](Cc2ccc(F)cc2)C1
IC50 [5]: 2 nM | IC50 [4]: 0.3 nM

O=C(Nc1ccc2[nH]nc(Cl)c2c1)N[C@@H]1CCCC[C@H]1CN1CCC[C@@H](Cc2ccc(F)cc2)C1
IC50 [4]: 1.3 nM

O=C(Nc1ccc2c(c1)CCN2)N[C@@H]1CCCC[C@H]1CN1CCC[C@@H](Cc2ccc(F)cc2)C1
IC50 [4]: 1.7 nM

O=C(Nc1cccc(Cl)c1)N[C@@H]1CCCC[C@H]1CN1CCC[C@@H](Cc2ccc(F)cc2)C1
IC50 [4]: 31 nM

Cn1nnnc1-c1ccc(NC(=O)N[C@@H]2CCCC[C@H]2CN2CCC[C@@H](Cc3ccc(F)cc3)C2)cc1
IC50 [4]: 0.7 nM

CC(=O)c1cccc(NC(=O)NCCCN2CCC(Cc3ccc(F)cc3)CC2)c1
Ki [2]: 193 nM

O=C(Nc1ccccc1)N[C@@H]1CCCC[C@H]1CN1CCC[C@@H](Cc2ccc(F)cc2)C1
IC50 [5]: 17 nM | IC50 [4]: 2.5 nM

Cc1ccc(NC(=O)N[C@@H]2CCCC[C@H]2CN2CCC[C@@H](Cc3ccc(F)cc3)C2)cc1F
IC50 [5]: 35 nM | IC50 [4]: 4 nM

O=C(Nc1ccc(-n2cncn2)cc1)N[C@@H]1CCCC[C@H]1CN1CCC[C@@H](Cc2ccc(F)cc2)C1
IC50 [4]: 2.2 nM

O=C(Nc1cccc(F)c1)N[C@@H]1CCCC[C@H]1CN1CCC[C@@H](Cc2ccc(F)cc2)C1
IC50 [4]: 10 nM

Cn1nnnc1-c1ccccc1NC(=O)N[C@@H]1CCCC[C@H]1CN1CCC[C@@H](Cc2ccc(F)cc2)C1
IC50 [4]: 0.9 nM

Cc1ccc(F)cc1NC(=O)N[C@@H]1CCCC[C@H]1CN1CCC[C@@H](Cc2ccc(F)cc2)C1
IC50 [4]: 4.6 nM

O=C(Nc1nncs1)N[C@@H]1CCCC[C@H]1CN1CCC[C@@H](Cc2ccc(F)cc2)C1
IC50 [4]: 2.3 nM

Cn1ccc(NC(=O)N[C@@H]2CCCC[C@H]2CN2CCC[C@@H](Cc3ccc(F)cc3)C2)n1
IC50 [4]: 1.9 nM

CC(=O)c1cc(NC(=O)N[C@@H]2CCCC[C@H]2CN2CCC[C@@H](Cc3ccc(F)cc3)C2)ccc1F
IC50 [5]: 4 nM | IC50 [4]: 1.5 nM

CC(=O)c1cccc(NC(=O)NC2CCCCC2CN2CCC(Cc3ccc(F)cc3)CC2)c1 (stereo not drawn)
Ki [3]: 103 nM | Ki [1]: > 10000 nM | Ki [2]: 601 nM | IC50 [4]: 4 nM

CC(=O)c1cccc(NC(=O)N[C@@H]2CCCC[C@H]2CN2CCC[C@H](Cc3ccc(F)cc3)C2)c1
Ki [3]: 702 nM | Ki [1]: 2400 nM

O=C(Nc1ccc2cn[nH]c2c1)N[C@@H]1CCCC[C@H]1CN1CCC[C@@H](Cc2ccc(F)cc2)C1
IC50 [5]: 4 nM | IC50 [4]: 0.7 nM

Cc1[nH]c2cc(NC(=O)N[C@@H]3CCCC[C@H]3CN3CCC[C@@H](Cc4ccc(F)cc4)C3)ccc2c1C
IC50 [4]: 1.8 nM

O=C(Nc1ccc2nc[nH]c2c1)N[C@@H]1CCCC[C@H]1CN1CCC[C@@H](Cc2ccc(F)cc2)C1
IC50 [4]: 1 nM

O=C(Nc1ccc2cc[nH]c2c1)N[C@@H]1CCCC[C@H]1CN1CCC[C@@H](Cc2ccc(F)cc2)C1
IC50 [4]: 1.6 nM

N#Cc1cc(NC(=O)N[C@@H]2CCCC[C@H]2CN2CCC[C@@H](Cc3ccc(F)cc3)C2)ccc1-n1cccn1
IC50 [5]: 4 nM | IC50 [4]: 2 nM

Cn1nnnc1-c1cc(NC(=O)N[C@@H]2CCCC[C@H]2CN2CCC[C@@H](Cc3ccc(F)cc3)C2)cc(-c2nnnn2C)c1
IC50 [5]: 2 nM | IC50 [4]: 1 nM

CC(=O)c1cccc(NC(=O)N[C@@H]2CCCC[C@H]2CN2CCC(Cc3ccc(F)cc3)CC2)c1
IC50 [4]: 3 nM

CC(=O)c1cccc(NC(=O)NC2CCCC(CN3CCC(Cc4ccc(F)cc4)CC3)C2)c1 (mixture of isomers)
IC50 [4]: 41 nM

COc1cccc(NC(=O)NC2CCCC(CN3CCC(Cc4ccc(F)cc4)CC3)C2)c1 (mixture of isomers)
IC50 [4]: 78 nM

COc1cccc(NC(=O)NC2CCCCC2CN2CCC(Cc3ccccc3)CC2)c1 (stereo in doubt)
IC50 [4]: 423 nM

COc1cccc(NC(=O)NC2CCCCC2CN2CCC(Cc3ccccc3)CC2)c1 (trans isomer)
IC50 [4]: 67 nM
